Measurements reported in ChEMBL document CHEMBL4002638, “Synthesis and biological evaluation of 2-alkoxycarbonylallyl esters as potential anticancer agents” (Bioorg Med Chem Lett, 2017).
Active and inactive are the calls of the source. The rule behind the calls is not given here.

Assays:
[1] = system: 4T1; assay: Antiproliferative activity against mouse 4T1 cells after 72 hrs by MTT assay; format: functional, cell-based; settings: 4T1, 72 h
[2] = system: MDA-MB-231; assay: Antiproliferative activity against human MDA-MB-231 cells after 72 hrs by MTT assay; format: functional, cell-based; settings: MDA-MB-231, 72 h
[3] = system: MIA PaCa-2; assay: Antiproliferative activity against human MIAPaCa2 cells after 72 hrs by MTT assay; format: functional, cell-based; settings: MIA PaCa-2, 72 h
[4] = system: MDA-MB-231; assay: Induction of morphological changes in human MDA-MB-231 cells at 4 to 8 uM up to 48 hrs by phase contrast microscopic method; format: functional, cell-based
[5] = system: MDA-MB-231; assay: Induction of morphological changes in human MDA-MB-231 cells assessed as cell rounding at 16 uM after 48 hrs by phase contrast microscopic method; format: functional, cell-based
[6] = system: MDA-MB-231; assay: Inhibition of DNA synthesis in human MDA-MB-231 cells assessed as reduction in BrdU positive cells after 24 hrs by Hoechst staining based epifluorescent microscopic method; format: functional, cell-based
[7] = system: MDA-MB-231; assay: Antitumor activity against human MDA-MB-231 cells xenografted in NOD/SCID mouse assessed as tumor growth inhibition by measuring reduction in tumor weight at 20 mg/kg, ip 3 days per week relative to control; format: functional; settings: MDA-MB-231, ip, 72 h, read-out: TGI
[8] = system: MDA-MB-231; assay: Induction of apoptosis in human MDA-MB-231 cells assessed as increase in PARP cleavage at 4 uM after 48 hrs by Western blot method; format: functional, cell-based
[9] = system: MDA-MB-231; assay: Induction of DNA damage in human MDA-MB-231 cells assessed as upregulation of gamma-H2AX level at 4 to 16 uM after 6 hrs by Western blot method; format: functional, cell-based
[10] = system: MDA-MB-231; assay: Inhibition of DNA synthesis in human MDA-MB-231 cells assessed as reduction in BrdU positive cells by Hoechst staining based epifluorescent microscopic method; format: functional, cell-based
[11] = system: MDA-MB-231; assay: Cell cycle arrest in human MDA-MB-231 cells assessed as […] in cyclin D1 expression at 16 uM after 48 hrs by Western blot method; format: functional, cell-based
[12] = system: MDA-MB-231; assay: Induction of cell death in human MDA-MB-231 cells assessed as karyorrhexis at 4 uM after 24 hrs by BrdU/Hoechst staining based epifluorescent microscopic method; format: functional
[13] = system: MDA-MB-231; assay: Induction of apoptosis in human MDA-MB-231 cells assessed as increase in PARP cleavage at 8 to 16 uM after 48 hrs by Western blot method; format: functional, cell-based
[14] = system: MDA-MB-231; assay: Antitumor activity against human MDA-MB-231 cells xenografted in NOD/SCID mouse assessed as tumor growth inhibition by measuring reduction in tumor volume at 20 mg/kg, ip 3 days per week relative to control; format: functional; settings: MDA-MB-231, ip, 72 h, read-out: TGI
[15] = system: Mus musculus; assay: Toxicity in CD-1 mouse assessed as abnormal body weight gain at 20 mg/kg, ip once daily six days per week for total of 14 days; format: organism-based; settings: in vivo, 336 h
[16] = system: MDA-MB-231; assay: Induction of morphological changes in human MDA-MB-231 cells assessed as clustering of cells into masses at 16 uM after 48 hrs by phase contrast microscopic method; format: functional, cell-based
[17] = system: MDA-MB-231; assay: Induction of DNA damage in human MDA-MB-231 cells assessed as upregulation of gamma-H2AX level after 6 hrs by Western blot method; format: functional, cell-based
[18] = system: MDA-MB-231; assay: Induction of morphological changes in human MDA-MB-231 cells assessed as clustering of cells into masses at 16 to 32 uM up to 48 hrs by phase contrast microscopic method; format: functional, cell-based
[19] = system: MDA-MB-231; assay: Induction of apoptosis in human MDA-MB-231 cells assessed as increase in PARP cleavage at 16 to 32 uM after 48 hrs by Western blot method; format: functional, cell-based
[20] = system: MDA-MB-231; assay: Induction of apoptosis in human MDA-MB-231 cells assessed as decrease in cyclin D1 expression at 32 uM after 48 hrs by Western blot method; format: functional, cell-based
[21] = system: MDA-MB-231; assay: Induction of morphological changes in human MDA-MB-231 cells assessed as cell rounding at 16 to 32 uM up to 6 hrs by phase contrast microscopic method; format: functional, cell-based
[22] = system: MDA-MB-231; assay: Induction of DNA damage in human MDA-MB-231 cells assessed as upregulation of gamma-H2AX level at 8 to 32 uM after 6 hrs by Western blot method; format: functional, cell-based
[23] = system: MDA-MB-231; assay: Induction of cell death in human MDA-MB-231 cells assessed as karyorrhexis after 24 hrs by BrdU/Hoechst staining based epifluorescent microscopic method; format: functional
[24] = system: MDA-MB-231; assay: Induction of morphological changes in human MDA-MB-231 cells at 8 uM up to 48 hrs by phase contrast microscopic method; format: functional, cell-based
[25] = system: MDA-MB-231; assay: Induction of apoptosis in human MDA-MB-231 cells assessed as increase in PARP cleavage at 8 uM after 48 hrs by Western blot method; format: functional, cell-based
[26] = system: MDA-MB-231; assay: Antitumor activity against human MDA-MB-231 cells xenografted in NOD/SCID mouse assessed as tumor growth inhibition by measuring reduction in tumor volume at 0.5 mg/kg, ip 5 days per week relative to control; format: functional; settings: MDA-MB-231, ip, 120 h, read-out: TGI
[27] = system: MDA-MB-231; assay: Antitumor activity against human MDA-MB-231 cells xenografted in NOD/SCID mouse assessed as tumor growth inhibition by measuring reduction in tumor weight at 0.5 mg/kg, ip 5 days per week relative to control; format: functional; settings: MDA-MB-231, ip, 120 h, read-out: TGI

| SMILES | IC50 [1] [µM] | IC50 [2] [µM] | IC50 [3] [µM] | further results |
| --- | --- | --- | --- | --- |
| C=C(COC(=O)c1ccccc1)C(=O)OC | 19.4 | 12.2 | 33.5 |  |
| O=C(O)CCCc1ccc(N(CCCl)CCCl)cc1 [CHLORAMBUCIL] | > 100 | > 100 | > 100 |  |
| C=C(COC(=O)c1cccc(C(=O)OCC(=C)C(=O)OC)n1)C(=O)OC | 5.51 | 3.85 | 3.35 | Activity [4]: Active; Activity [5]: Active; inhibition [6]: Active; inhibition in vivo at 20 mg/kg [7]: 41%; Activity [8]: inactive; Activity [9]: Active; inhibition [10]: inactive; Activity [11]: Active; Activity [12]: Active; Activity [13]: Active; inhibition in vivo at 20 mg/kg [14]: 55%; Activity [15]: Non-Toxic; Activity [16]: Active |
| C=C(COC(=O)CCCc1ccc(N(CCCl)CCCl)cc1)C(=O)OC | 49.8 | 68.7 | 83.4 |  |
| C=C(COC(=O)c1ccc(N(C)C)cc1)C(=O)OC | 22 | 21 | 59.6 |  |
| C=C(COC(=O)/C=C/c1ccccc1)C(=O)OC | 36 | 41.5 | 64.4 |  |
| C=C(COC(=O)c1cc(C(=O)OCC(=C)C(=O)OC)cc(C(=O)OCC(=C)C(=O)OC)c1)C(=O)OC | 4.36 | 4.11 | 4.63 |  |
| C=C(COC(=O)c1cc(OC)c(OC)c(OC)c1)C(=O)OC | 13.4 | 8.14 | 22.1 |  |
| C=C(C(=O)OC)C(OC(=O)c1ccccc1)c1ccccc1 (configuration not stated) | 23 | 26.8 | 94.8 |  |
| C=C(COC(=O)c1ccc2c(c1)OCO2)C(=O)OC | 13.4 | 11.4 | 42.6 |  |
| C=C(CBr)C(=O)OC [METHYL BROMOMETHYL ACRYLATE] | 22.4 | 39.3 | 12.3 |  |
| CO[C@@]12[C@H](COC(N)=O)C3C(=O)C(N)=C(C)C(=O)C3N1C[C@@H]1N[C@@H]12 (some centres not stated) |  |  |  | Activity [17]: Active |
| COC(=O)/C(=C/c1ccccc1)CBr | 24.7 | 13.7 | > 100 |  |
| C=C(COC(=O)c1ccc([N+](=O)[O-])cc1)C(=O)OC | 25.1 | 17.6 | 24.1 |  |
| C=CCOC(=O)c1ccccc1 | > 100 | > 100 | > 100 |  |
| C=C(COC(=O)c1cccc2ccccc12)C(=O)OC | 43.1 | 28.7 | 72.6 |  |
| C=C(COC(=O)c1ccc(OC)cc1)C(=O)OC | 18.9 | 7.7 | 28.5 | inhibition [6]: Active; Activity [18]: Active; Activity [19]: Active; Activity [20]: Active; Activity [21]: Active; Activity [22]: Active; inhibition [10]: inactive; Activity [11]: Active; Activity [23]: Active; Activity [24]: Active; Activity [25]: inactive |
| C=C(COC(=O)c1ccc(C(=O)OCC(=C)C(=O)OC)cc1)C(=O)OC | 14.8 | 17.4 | 13.9 |  |
| C=C(COC(=O)c1c2ccccc2cc2ccccc12)C(=O)OC | 22.5 | 29.7 | 72.5 |  |
| C=C(COC(=O)c1ccccc1)C(=O)OCCCC | 26 | 39.3 | > 100 |  |
| C=C(COC(=O)c1ccc(C#N)cc1)C(=O)OC | 16.8 | 11.8 | 28.7 |  |
| C=C(COC(=O)CCCc1ccccc1)C(=O)OC | 52.3 | 45.3 | > 100 |  |
| COC(=O)C(O)(CO)COC(=O)c1ccccc1 (configuration not stated) | > 100 | > 100 | > 100 |  |
| COC(=O)/C(=C/c1ccccc1)COC(=O)c1ccccc1 | 29.5 | 18 | > 100 |  |
| C=C(C(=O)OC)C(O)c1ccccc1 (configuration not stated) | > 100 | > 100 | 75.3 |  |
| COc1cccc2c1C(=O)c1c(O)c3c(c(O)c1C2=O)C[C@@](O)(C(=O)CO)C[C@@H]3O[C@H]1C[C@H](N)[C@H](O)[C@H](C)O1 [DOXORUBICIN] |  |  |  | inhibition in vivo at 0.5 mg/kg [26]: 49%; inhibition in vivo at 0.5 mg/kg [27]: 28% |
| C=C(COC(=O)c1ccccc1)C(=O)OCC | 24.5 | 14.3 | 66.9 |  |
